# Assay: oxidative metabolism in liver microsomes from humans
# Format: in vitro ADME
# Settings: human liver microsomes, 15 min incubation
# Description: All liver microsomal and cytosolic fractions were prepared using the following procedure. Thawed livers were homogenized with 2 volumes of 50 mM Tris-buffer (pH 7.5) containing 1.15% KCl. For microsomal and cytosolic preparations, the homogenate was centrifuged for 20 min at 9,000×g and the resulting supernatant was centrifuged for 60 min at 105,000×g. The resulting cytosolic fractions were re-centrifuged at 105,000×g for 60 min. Fractions of cytosol were aliquoted into small tubes and stored at −70° C. Subsequently, the microsomal pellets were washed with 10 mM EDTA containing 1.15% KCl and were centrifuged at 105,000×g for 60 min. Washed microsomes were resuspended in 10 mM potassium phosphate buffer (pH 7.4) containing 250 mM sucrose, aliquoted into small tubes, and stored at −70° C. Protein concentrations were determined by a modified Lowry assay (Smith et al., 1985). The specific cytochrome P450 content in each microsomal preparation was measured as described by Omura and Sato, J. Biol. Chem. 239, 2370-2378 (1964). […]
# Method A was conducted on a Shimadzu HPLC system (Shimadzu Scientific Instruments Inc., Columbia Md.). The parent compounds and their metabolites were monitored directly using a radiometric detector (INUS Systems Inc. Tampa, Fla.) and Ultima-Flow M (Packard Instrument Co., Meridan Conn.) as scintillant at a flow rate of 3 mL/min. […]
smiles,measurement,value
"C[C@@H](O[C@H]1OCCN[C@H]1c1ccc(F)cc1)c1cc(C(F)(F)F)cc(C(F)(F)F)c1 [Metabolite M-1, (2R,3S)-2-[(1R)-1-[3,5-bis(trifluoromethyl)phenyl]ethoxy]-3-(4-fluorophenyl)morpholine]",parent compound remained after incubation,~50%

# Reference: US6727244B2, “Mammalian metabolites of a tachykinin receptor antagonist” (Merck & Co., Inc., priority 2000, dated 2004)
